Experimental data published in US12680128B2.

Key:
APOBEC3A (A3A) = APOBEC3A (A3A) (Homo sapiens, UniProt P31941); experiment: A3A deamination of ssDNA with homogeneously 5-modified cytosines (TA cloning assay); assay type: biochemical; settings: 8 μM A3A, 37° C., two hours
Protocol: Single stranded DNA with homogenously modified cytosines was obtained by LATE-PCR as previously described (Schutsky et al. Nucleic Acids Res 2017). Modified triphosphates were obtained from TriLink unless otherwise noted here (mC: NEB, peC/pC: synthesized in house, purified by ion-pair chromatography, Ghanty et al. JACS 2018). 1 ng of purified single stranded DNA was incubated with 8 μM A3A at 37° C. for two hours. This 202 base pair amplicon was PCR amplified and TA cloned. Single clones were sent for Sanger Sequencing. After alignment to the parent 202mer substrate (Table 1), C to T conversions were quantified as a percentage of total Cs.
To determine more exact parameters that define the discrimination as a function of sterics at the C5 position, we synthesized or obtained dxCTP analogs, with variable (x) 5-position substituents, and used established approaches to generate long ssDNA substrates with homogeneous C modifications (36). These substrates were reacted with A3A, reamplified and analyzed for deamination by restriction digestion at a specific site.

plasmid DNA CpG sites = assay type: cell-based, E. coli
[1] = tested on: unmethylated phage gDNA CpG sites; experiment: Amplicon sequencing of phage gDNA treated with M.MpeI N374K and SAM or CxSAM, then bisulfite or A3A
pUC19 plasmid DNA = experiment: pUC19 assay (in vitro transfer of SAM or CxSAM, HpaII/HhaI challenge)
[2] = tested on: pMG81-M.MpeI plasmid CCGG sites; settings: in vivo, plasmid recovered after induced expression
[3] = tested on: E. coli genomic DNA CCWGG sites; experiment: Nucleoside LC-MS/MS of genomic DNA after in vivo expression of Dcm variants; settings: dam-/dcm- E. coli, gDNA

Sequence of APOBEC3A (A3A) (P31941 whole entry): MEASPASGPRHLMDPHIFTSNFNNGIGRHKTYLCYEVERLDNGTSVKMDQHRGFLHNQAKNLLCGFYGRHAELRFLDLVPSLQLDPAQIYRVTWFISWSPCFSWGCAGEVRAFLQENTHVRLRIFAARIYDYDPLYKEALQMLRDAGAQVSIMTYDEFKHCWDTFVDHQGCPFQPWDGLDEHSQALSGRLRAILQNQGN

5-propynyl-dC [5pyC]
deamination by A3A of ssDNA with all Cs replaced by the modified base (APOBEC3A (A3A)): undetectable levels of deamination

M.MpeI N374K: CpG M.MpeI Carboxymethyltransferase with a C-terminal His Tag, SEQ ID NO: 1 (lacks His tag) / SEQ ID NO: 2
change of 5cxmC signal in the added presence of the CmoA plasmid (plasmid DNA CpG sites): an increase in 5cxmC signal | in vivo plasmid carboxymethylation (5cxmC) by LC-MS/MS (plasmid DNA CpG sites): can be detected and lost | level of 5cxmC modification across overexpression conditions (plasmid DNA CpG sites): greatest level of 5cxmC modification | DNA newly resistant to A3A deamination ([1]; CxSAM, A3A deamination): ~ 50% | DNA modified as 5cxmC (cytosine calls at CpGs after bisulfite) ([1]; CxSAM, bisulfite deamination): ~ 50% | DNA newly modified to be 5mC (cytosine calls at CpGs after bisulfite) ([1]; SAM, bisulfite deamination): ~ 60% | protection of pUC19 plasmid from restriction digestion (pUC19 plasmid DNA; CxSAM substrate): newly gains the ability to transfer CxSAM | protection of pUC19 plasmid from restriction digestion (pUC19 plasmid DNA; SAM substrate): transfers SAM less efficiently than the WT enzyme | HpaII and MspI digestion pattern of encoding plasmid [2]: faint ~2 kB band resistant to MspI digestion

B1: WT Dcm: E. coli's naturally occurring DNA Cytosine Methyltransferase (Dcm) (protein, UniProt P0AED9 1-472, looked up)
DNA-cytosine methyltransferase: MQENISVTDSYSTGNAAQAMLEKLLQIYDVKTLVAQLNGVGENHWSAAILKRALANDSAWHRLSEKEFAHLQTLLPKPPAHHPHYAFRFIDLFAGIGGIRRGFESIGGQCVFTSEWNKHAVRTYKANHYCDPATHHFNEDIRDITLSHKEGVSDEAAAEHIRQHIPEHDVLLAGFPCQPFSLAGVSKKNSLGRAHGFACDTQGTLFFDVVRIIDARRPAMFVLENVKNLKSHDQGKTFRIIMQTLDELGYDVADAEDNGPDDPKIIDGKHFLPQHRERIVLVGFRRDLNLKADFTLRDISECFPAQRVTLAQLLDPMVEAKYILTPVLWKYLYRYAKKHQARGNGFGYGMVYPNNPQSVTRTLSARYYKDGAEILIDRGWDMATGEKDFDDPLNQQHRPRRLTPRECARLMGFEAPGEAKFRIPVSDTQAYRQFGNSVVVPVFAAVAKLLEPKIKQAVALRQQEAQHGRRSR
formation of 5cxmC in the native E. coli genome [3]: not | methylation of cytosine (detection of 5mC) [3]: could methylate cytosine

B2: Dcm N436K: CCWGG Dcm Carboxymethyltransferase with a C-terminal His Tag, SEQ ID NO: 3 / SEQ ID NO: 4 (protein)
chain: MQENISVTDSYSTGNAAQAMLEKLLQIYDVKTLVAQLNGVGENHWSAAILKRALANDSAWHRLSEKEFAHLQTLLPKPPAHHPHYAFRFIDLFAGIGGIRRGFESIGGQCVFTSEWNKHAVRTYKANHYCDPATHHFNEDIRDITLSHKEGVSDEAAAEHIRQHIPEHDVLLAGFPCQPFSLAGVSKKNSLGRAHGFACDTQGTLFFDVVRIIDARRPAMFVLENVKNLKSHDQGKTFRIIMQTLDELGYDVADAEDNGPDDPKIIDGKHFLPQHRERIVLVGFRRDLNLKADFTLRDISECFPAQRVTLAQLLDPMVEAKYILTPVLWKYLYRYAKKHQARGNGFGYGMVYPNNPQSVTRTLSARYYKDGAEILIDRGWDMATGEKDFDDPLNQQHRPRRLTPRECARLMGFEAPGEAKFRIPVSDTQAYRQFGKSVVVPVFAAVAKLLEPKIKQAVALRQQEAQHGRRSRHHHHHH
modifications: C-terminal His tag; Dcm N436K with His tag
CCWGG sites carboxymethylated (5cxmC relative to total CCWGGs) [3]: > 1.5% | formation of 5cxmC in the native E. coli genome [3]: could catalyze the formation of 5cxmC | methylation of cytosine (detection of 5mC) [3]: could methylate cytosine
